Reference: ChEMBL document CHEMBL4613260, “NF-κB Inhibitory and Antibacterial Helvolic and Fumagillin Derivatives from Aspergillus terreus” (J Nat Prod, 2020)
Active and inactive are the calls of the source. No cut-off for these calls is given here.

Key:
Staphylococcus aureus [1] = assay: Antibacterial activity against Staphylococcus aureus ATCC 43300 at 50 ug/ml after 24 hrs by resazurin dye based broth microdilution method; assay type: functional, organism-based
HEK293 = assay: Cytotoxicity against HEK293 cells at 50 uM by SRB assay; assay type: cell-based; details: human, hek293, 50 µM
A2780 = assay: Antiproliferative activity against human A2780 cells at 40 uM after 72 hrs by Cyquant assay; assay type: functional, cell-based
Escherichia coli [2] = assay: Antibacterial activity against Escherichia coli ATCC 9637 at 50 ug/ml after 24 hrs by resazurin dye based broth microdilution method; assay type: functional, organism-based; details: W ATCC 9637
[3] = Inhibition of TNFalpha-induced NFkappaB activation in human HEK293 cells after 6 hrs by luciferase assay; assay type: cell-based; details: HEK293, 6 h
Staphylococcus aureus [4] = assay: Antibacterial activity against Staphylococcus aureus ATCC 43300 after 24 hrs by resazurin dye based broth microdilution method; assay type: functional; details: ATCC 43300, 24 h
Escherichia coli [5] = assay: Antibacterial activity against Escherichia coli ATCC 9637 after 24 hrs by resazurin dye based broth microdilution method; assay type: functional; details: W ATCC 9637, 24 h

SMILES	IC50 [3]	MIC (Staphylococcus aureus [4])	MIC (Escherichia coli [5])	Activity (Staphylococcus aureus [1])	Activity (HEK293)	Activity (A2780)	Activity (Escherichia coli [2])
CO[C@@H]1[C@H](OC(=O)/C=C/C=C/C=C/C=C/C(=O)O)CC[C@]2(CO2)[C@H]1[C@@]1(C)O[C@@H]1CC=C(C)C [FUMAGILLIN]				inactive	Non-Toxic	inactive	inactive
O=C(N[C@H](CO)[C@H](O)c1ccc([N+](=O)[O-])cc1)C(Cl)Cl [CHLORAMPHENICOL]		19.4 µM	9.66 µM				
CC(=O)O[C@H]1C[C@@]2(C)[C@@H](CC[C@H]3[C@@]4(C)C=CC(=O)[C@@H](C)[C@@H]4[C@H](OC(C)=O)C(=O)[C@@]32C)/C1=C(\CCC=C(C)C)C(=O)O [HELVOLIC ACID]	2.7 µM	12.5 µg/mL	3.12 µg/mL		Non-Toxic	inactive	
CO[C@@H]1[C@H](OC(=O)/C=C/C=C/C=C/C(=O)O)CC[C@]2(O)CO[C@](C)([C@H](O)CC=C(C)C)[C@@H]12				inactive	Non-Toxic	inactive	inactive
CC(=O)O[C@H]1C[C@@]2(C)[C@@H](CC[C@H]3[C@@]4(C)CCC(=O)[C@@H](C)[C@@H]4[C@H](O)C(=O)[C@@]32C)/C1=C(\CCC=C(C)C)C(=O)O		12.5 µg/mL	25 µg/mL		Non-Toxic	inactive	

Further lines, with some results ahead:

IC50 [3]	MIC (Staphylococcus aureus [4])	MIC (Escherichia coli [5])	SMILES	Activity (Staphylococcus aureus [1])	Activity (HEK293)	Activity (A2780)	Activity (Escherichia coli [2])
11 µM			Cc1ccc(S(=O)(=O)/C=C/C#N)cc1				
	6.25 µg/mL	25 µg/mL	CC(=O)O[C@H]1C[C@@]2(C)[C@@H](CC[C@H]3[C@@]4(C)CCC(=O)[C@@H](C)[C@@H]4CC[C@@]32C)/C1=C(\CCC=C(C)C)C(=O)O		Non-Toxic	inactive	
	6.25 µg/mL	25 µg/mL	CC(=O)O[C@H]1C[C@@]2(C)[C@@H](CC[C@H]3[C@@]4(C)CCC(=O)[C@@H](C)[C@@H]4C[C@@H](O)[C@@]32C)/C1=C(\CCC=C(C)C)C(=O)O		Non-Toxic	inactive	
5.3 µM			Cc1ccc(S(=O)(=O)N[C@@H](Cc2ccccc2)C(=O)CCl)cc1 [TPCK]				
6.5 µM	50 µg/mL	25 µg/mL	CC(=O)O[C@H]1C[C@@]2(C)[C@@H](CC[C@H]3[C@@]4(C)CCC(=O)[C@@H](C)[C@@H]4[C@H](OC(C)=O)C(=O)[C@@]32C)/C1=C(\CCC=C(C)C)C(=O)O		Non-Toxic	inactive	
